From a compilation of properties of binary mixtures (doi:10.1021/acs.jpcc.8b05193)

Assay: xn = mol fraction of the nth substance listed
Settings: 100 kPa

O=S(=O)([N-]S(=O)(=O)C(F)(F)F)C(F)(F)F.[Li+] + O
Settings | electrical conductivity [S/m]
260.73 K, x2 = 0.7857 | 0.407
261.98 K, x2 = 0.8065 | 0.617
262.18 K, x2 = 0.8855 | 1.33
262.4 K, x2 = 0.9148 | 1.46
262.6 K, x2 = 0.8271 | 0.808
262.82 K, x2 = 0.8495 | 1.04
265.92 K, x2 = 0.7857 | 0.55
266.56 K, x2 = 0.8065 | 0.767
266.96 K, x2 = 0.8495 | 1.25
266.96 K, x2 = 0.9761 | 1.36
267.38 K, x2 = 0.8855 | 1.66
267.6 K, x2 = 0.9148 | 1.86
270.7 K, x2 = 0.7857 | 0.684
271.54 K, x2 = 0.8065 | 0.966
271.96 K, x2 = 0.9761 | 1.73
272.15 K, x2 = 0.8271 | 1.21
272.6 K, x2 = 0.9148 | 2.27
273.4 K, x2 = 0.7538 | 0.461
273.4 K, x2 = 0.8495 | 1.62
275.7 K, x2 = 0.7857 | 0.843
277.15 K, x1 = 0.0039 | 0.623
277.35 K, x2 = 0.8065 | 1.16
277.35 K, x2 = 0.8855 | 2.54
277.35 K, x2 = 0.9761 | 2.06
277.55 K, x2 = 0.8271 | 1.51
277.97 K, x2 = 0.7538 | 0.579
277.97 K, x2 = 0.9148 | 2.88
278.19 K, x2 = 0.8495 | 1.94
280.67 K, x2 = 0.7857 | 1.06
281.51 K, x2 = 0.8271 | 1.8
281.93 K, x2 = 0.8855 | 2.94
282.13 K, x2 = 0.9761 | 2.49
282.32 K, x1 = 0.0039 | 0.736
282.32 K, x2 = 0.8065 | 1.43
282.55 K, x2 = 0.9148 | 3.3
282.74 K, x2 = 0.8495 | 2.22
285.45 K, x2 = 0.7857 | 1.23
286.71 K, x2 = 0.9148 | 3.94
286.9 K, x2 = 0.8271 | 2.11
287.1 K, x2 = 0.8065 | 1.66
287.32 K, x2 = 0.8855 | 3.47
287.52 K, x2 = 0.9761 | 2.94
287.94 K, x2 = 0.8495 | 2.65
291.06 K, x2 = 0.7857 | 1.46
291.46 K, x2 = 0.8271 | 2.41
291.88 K, x2 = 0.8855 | 3.98
292.1 K, x2 = 0.9761 | 3.33
292.52 K, x2 = 0.7538 | 1.02
292.71 K, x2 = 0.9148 | 4.51
293.13 K, x2 = 0.8495 | 3.17
295.84 K, x2 = 0.7857 | 1.71
296.88 K, x2 = 0.6988 | 0.538
296.88 K, x2 = 0.9761 | 3.81
297.29 K, x2 = 0.8065 | 2.22
297.29 K, x2 = 0.8855 | 4.65
297.49 K, x2 = 0.7538 | 1.19
297.49 K, x2 = 0.8495 | 3.51
297.49 K, x2 = 0.9148 | 5.33
298.11 K, x1 = 0.0039 | 1.07
300.4 K, x2 = 0.7857 | 1.96
302.47 K, x1 = 0.0039 | 1.21
302.47 K, x2 = 0.6988 | 0.636
302.47 K, x2 = 0.8855 | 5.16
302.69 K, x2 = 0.9761 | 4.37
303.11 K, x2 = 0.8065 | 2.62
305.59 K, x2 = 0.7857 | 2.24
307.05 K, x2 = 0.8855 | 5.67
307.05 K, x2 = 0.9148 | 6.42
307.24 K, x2 = 0.6988 | 0.767
307.46 K, x1 = 0.0039 | 1.35
307.46 K, x2 = 0.8271 | 3.62
307.46 K, x2 = 0.8495 | 4.46
310.79 K, x2 = 0.7857 | 2.57
312.02 K, x2 = 0.9761 | 5.38
312.24 K, x2 = 0.7538 | 1.8
312.24 K, x2 = 0.8271 | 4.02
312.24 K, x2 = 0.8495 | 4.95
312.66 K, x1 = 0.0039 | 1.51
312.66 K, x2 = 0.8855 | 6.42
312.66 K, x2 = 0.9148 | 7.28
313.05 K, x2 = 0.6601 | 0.528
316.6 K, x1 = 0.0039 | 1.62
316.8 K, x2 = 0.8855 | 7.06
317.02 K, x2 = 0.8065 | 3.59
317.21 K, x2 = 0.9761 | 5.97
317.41 K, x2 = 0.9148 | 8.07
317.63 K, x2 = 0.6601 | 0.604
317.83 K, x2 = 0.7538 | 2.06
321.79 K, x2 = 0.8065 | 3.94
321.79 K, x2 = 0.8855 | 7.59
321.99 K, x1 = 0.0039 | 1.78
322.19 K, x2 = 0.8271 | 4.85
322.41 K, x2 = 0.9148 | 8.69
322.61 K, x2 = 0.8495 | 6.03
322.83 K, x2 = 0.6601 | 0.692
323.03 K, x2 = 0.6988 | 1.18
326.35 K, x2 = 0.7857 | 3.51
326.77 K, x1 = 0.0039 | 1.92
326.97 K, x2 = 0.8855 | 8.33
327.19 K, x2 = 0.7538 | 2.52
327.19 K, x2 = 0.9148 | 9.45
327.38 K, x2 = 0.9761 | 7.13
327.8 K, x2 = 0.8495 | 6.49
328.02 K, x2 = 0.8065 | 4.56
328.64 K, x2 = 0.6601 | 0.833
332.16 K, x1 = 0.0039 | 2.08
332.58 K, x2 = 0.6988 | 1.52
332.58 K, x2 = 0.9148 | 10
332.78 K, x2 = 0.9761 | 7.67
333.42 K, x2 = 0.6601 | 0.945
336.94 K, x2 = 0.8271 | 6.35
337.16 K, x1 = 0.0039 | 2.2
337.36 K, x2 = 0.8065 | 5.27
337.55 K, x2 = 0.8495 | 7.59
337.55 K, x2 = 0.9148 | 10.7
337.78 K, x2 = 0.9761 | 8.25
337.97 K, x2 = 0.7538 | 3.13
338.19 K, x2 = 0.6601 | 1.05
338.19 K, x2 = 0.6988 | 1.73
342.33 K, x2 = 0.8495 | 8.16
342.33 K, x2 = 0.9148 | 11.6
342.55 K, x2 = 0.6988 | 1.88
342.55 K, x2 = 0.8855 | 10.4
342.75 K, x2 = 0.9761 | 8.87
345.65 K, x2 = 0.7857 | 4.95
347.11 K, x2 = 0.8855 | 11
347.33 K, x2 = 0.6601 | 1.35
347.33 K, x2 = 0.8065 | 6.03
347.33 K, x2 = 0.8271 | 7.51
347.75 K, x2 = 0.9148 | 12.5
347.94 K, x2 = 0.7538 | 3.73
350.43 K, x2 = 0.7857 | 5.27
352.11 K, x2 = 0.8495 | 9.06
352.3 K, x1 = 0.0039 | 2.65
352.52 K, x2 = 0.9148 | 13
352.72 K, x2 = 0.8271 | 7.91
352.72 K, x2 = 0.9761 | 9.74
352.92 K, x2 = 0.6601 | 1.48
353.14 K, x2 = 0.6988 | 2.34
353.34 K, x2 = 0.7538 | 4.02
356.66 K, x2 = 0.8065 | 6.91
356.88 K, x2 = 0.6988 | 2.49
357.08 K, x2 = 0.9761 | 10.3
357.3 K, x2 = 0.8271 | 8.33
357.3 K, x2 = 0.8495 | 9.74
357.5 K, x1 = 0.0039 | 2.85
357.7 K, x2 = 0.6601 | 1.64
357.92 K, x2 = 0.7538 | 4.32
359.79 K, x2 = 0.7857 | 6.03
360.82 K, x2 = 0.8065 | 7.28
360.82 K, x2 = 0.9761 | 10.7
361.66 K, x2 = 0.8495 | 10.3
361.66 K, x2 = 0.8855 | 13.2
361.86 K, x1 = 0.0039 | 3.04
362.05 K, x2 = 0.6601 | 1.82
362.05 K, x2 = 0.8271 | 8.96
362.47 K, x2 = 0.6988 | 2.76
363.11 K, x2 = 0.9148 | 14.5
363.31 K, x2 = 0.7538 | 4.7
